From ChEMBL document CHEMBL1773002, “Development of imidazole alkanoic acids as mGAT3 selective GABA uptake inhibitors” (Eur J Med Chem, 2011)

Experiments:
[1] = target: Sodium- and chloride-dependent GABA transporter 1 (Mus musculus) (UniProt P31648); assay: Inhibition of mouse GAT1-mediated [3H]GABA uptake expressed in human HEK cells assessed as specific binding remaining at 1 mM; type: cell-based; conditions: HEK293
HEK293 [2] = assay: Inhibition of mouse GAT4-mediated [3H]GABA uptake expressed in human HEK cells assessed as specific binding remaining at 1 mM; type: cell-based
[3] = target: Sodium- and chloride-dependent GABA transporter 1 (Mus musculus, UniProt P31648); type: cell-based, HEK293
cells = type: cell-based; conditions: HEK293, 3 h
[4] = target: Sodium- and chloride-dependent GABA transporter 1 (Mus musculus) (UniProt P31648); assay: Inhibition of mouse GAT1-mediated [3H]GABA uptake expressed in human HEK cells assessed as specific binding remaining at 100 µM; conditions: HEK293
[5] = target: T1, GABA transporter 3 (Mus musculus) (UniProt P31649); assay: Inhibition of mouse GAT2-mediated [3H]GABA uptake expressed in human HEK cells assessed as specific binding remaining at 100 µM; conditions: HEK293
T1 sequence (whole entry): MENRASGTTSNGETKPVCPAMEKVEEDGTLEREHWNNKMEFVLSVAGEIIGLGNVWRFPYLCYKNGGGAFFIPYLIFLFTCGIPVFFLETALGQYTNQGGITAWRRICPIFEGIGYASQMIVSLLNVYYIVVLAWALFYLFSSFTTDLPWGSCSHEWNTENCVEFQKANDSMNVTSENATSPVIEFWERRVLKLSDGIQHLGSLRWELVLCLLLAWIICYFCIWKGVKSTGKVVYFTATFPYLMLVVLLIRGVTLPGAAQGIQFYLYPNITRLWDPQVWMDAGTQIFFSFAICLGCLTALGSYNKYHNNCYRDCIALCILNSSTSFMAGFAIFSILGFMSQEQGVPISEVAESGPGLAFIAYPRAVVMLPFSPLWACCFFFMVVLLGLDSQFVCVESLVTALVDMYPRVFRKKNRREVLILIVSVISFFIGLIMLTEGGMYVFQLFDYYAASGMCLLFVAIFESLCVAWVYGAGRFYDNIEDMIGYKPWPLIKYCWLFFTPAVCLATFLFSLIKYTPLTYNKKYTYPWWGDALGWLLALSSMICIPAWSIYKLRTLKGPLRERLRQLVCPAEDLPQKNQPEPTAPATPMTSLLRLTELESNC

[6] = target: T2, GABA transporter 4 (Mus musculus) (UniProt P31650); assay: Inhibition of mouse GAT3-mediated [3H]GABA uptake expressed in human HEK cells assessed as specific binding remaining at 100 µM; conditions: HEK293
T2 sequence (whole entry): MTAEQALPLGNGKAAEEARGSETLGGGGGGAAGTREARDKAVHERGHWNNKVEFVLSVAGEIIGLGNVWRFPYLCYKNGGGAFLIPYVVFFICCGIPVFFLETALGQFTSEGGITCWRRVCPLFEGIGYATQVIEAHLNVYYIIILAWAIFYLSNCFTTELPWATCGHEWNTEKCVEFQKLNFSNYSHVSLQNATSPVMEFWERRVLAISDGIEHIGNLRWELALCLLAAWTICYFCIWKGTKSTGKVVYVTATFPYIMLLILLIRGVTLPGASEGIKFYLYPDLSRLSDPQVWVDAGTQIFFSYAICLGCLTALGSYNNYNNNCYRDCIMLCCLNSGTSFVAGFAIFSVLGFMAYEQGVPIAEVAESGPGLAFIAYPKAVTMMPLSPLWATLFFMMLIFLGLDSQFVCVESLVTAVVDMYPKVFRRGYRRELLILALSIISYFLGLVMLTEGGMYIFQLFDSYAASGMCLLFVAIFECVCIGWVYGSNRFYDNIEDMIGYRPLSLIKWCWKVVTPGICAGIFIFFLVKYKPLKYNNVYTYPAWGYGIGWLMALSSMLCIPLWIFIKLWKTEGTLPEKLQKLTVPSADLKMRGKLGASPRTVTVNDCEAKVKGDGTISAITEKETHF

HEK293 [7] = assay: Inhibition of mouse GAT4-mediated [3H]GABA uptake expressed in human HEK cells assessed as specific binding remaining at 100 µM

Row | Compound | Activity [1] [%] | Activity (HEK293 [2]) [%] | IC50 ([3]; read-out: pIC50 (converted)) [µM] | IC50 (cells; read-out: pIC50 (converted)) [µM] | other results
1 | O=C(O)c1c[nH]cn1 | 90.8 | 85.5 | – | – | –
2 | O=C(O)CCCCCn1ccnc1 | – | – | 1020 | 234 | –
3 | O=C(O)Cc1c[nH]cn1 [IMIDAZOLE ACETIC ACID] | – | – | 617 | 46.8 | –
4 | O=C(O)/C=C\c1ncc[nH]1 | 102 | 93.6 | – | – | –
5 | O=C(O)Cc1ncc[nH]1 | 75.3 | 63.4 | – | – | –
6 | O=C(O)/C=C/c1ncc[nH]1 | 73.3 | 47.2 | – | – | –
7 | NCC(=O)O [GLYCINE] | – | – | – | 3090 | –
8 | O=C(O)CCCCc1ncc[nH]1 | – | – | 724 | 437 | –
9 | O=C(O)c1cccc2[nH]cnc12 | – | – | – | – | Activity [4]: 95.9%; Activity [5]: 94.2%; Activity [6]: 78.2%; Activity (HEK293 [7]): 68.2%
10 | O=C(O)CCn1ccnc1 | 72 | – | – | 191 | –
11 | O=C(O)CCCCCCCn1ccnc1 | 68.3 | 58.6 | – | – | –
12 | O=C(O)C1CCc2[nH]cnc2C1 (stereo unspecified) | 85 | 82.4 | – | – | –
13 | O=C(O)CCc1ncc[nH]1 | 62.8 | – | – | 309 | –
14 | O=C(O)c1ncc[nH]1 | – | 98.6 | – | – | –
15 | O=C(O)c1ccc2[nH]cnc2c1 | – | – | – | – | Activity [4]: 108%; Activity [5]: 74.2%; Activity [6]: 103%; Activity (HEK293 [7]): 67.8%
16 | NCCCCCC(=O)O | – | 65.1 | – | – | –
17 | O=C(O)Cn1ccnc1 | 73.3 | – | – | 617 | –

Row | Compound | Activity [1] [%] | Activity (HEK293 [2]) [%] | IC50 ([3]; read-out: pIC50 (converted)) [µM] | IC50 (cells; read-out: pIC50 (converted)) [µM] | other results
18 | O=C(O)CCCCn1ccnc1 | – | – | 115 | 224 | –
19 | NCCC(=O)O [BETA-ALANINE] | – | – | 2570 | 34.7 | –
20 | COc1ccc(C2(O)CCN(CCCn3c4ccccc4c4ccccc43)CC2)cc1 | – | – | – | – | IC50 ([3]; read-out: IC50): 19 µM; IC50 (cells; read-out: IC50): 15 µM
21 | NCCCCCCC(=O)O | – | 84.3 | – | – | –
22 | O=C(O)CCCCc1c[nH]cn1 | – | 64.7 | 417 | – | –
23 | O=C(O)/C=C/c1c[nH]cn1 | 54.8 | 95.8 | – | – | –
24 | O=C(O)CCCc1c[nH]cn1 | – | – | 417 | 52.5 | –
25 | NCCCCC(=O)O [5-AMINOVALERIC ACID] | – | – | – | 501 | –
26 | O=C(O)C1CCCc2[nH]cnc21 (stereo unspecified) | 59 | 81.6 | – | – | –
27 | O=C(O)/C=C/CCc1c[nH]cn1 | – | – | 123 | 209 | –
28 | O=C(O)CCCn1ccnc1 | – | – | 117 | 38 | –
29 | O=C(O)CCc1c[nH]cn1 | 61.7 | – | – | 81.3 | –
30 | Cc1ccsc1C(=CCCN(C)C1CCCc2onc(O)c21)c1sccc1C (stereo unspecified) | – | – | – | – | IC50 ([3]; read-out: IC50): 4 µM; IC50 (cells; read-out: IC50): > 300 µM
31 | COc1ccc(C(OCCN2CCC[C@H](C(=O)O)C2)(c2ccc(OC)cc2)c2ccc(OC)cc2)cc1 | – | – | – | – | IC50 (cells; read-out: IC50): 3 µM
32 | O=C(O)/C=C/CCc1ncc[nH]1 | – | – | 324 | 309 | –
33 | O=C(O)CCCCCCn1ccnc1 | – | 71.1 | 676 | – | –
34 | O=C(O)CCCc1ncc[nH]1 | 62.3 | – | – | 513 | –
